# Test results: article PMC8804135 (Neurotherapeutics, 2021)
# Numbered stars: 1 amine (or outer) side, 2 acyl side, 3 side chain; on linkers, the order of the positions; unused ones are H or OH. Bridge positions count the residues as written; N and C are the ends. Square brackets hold non-standard residues; d marks the D form. Ends that are not written are not given here. Peptide text beside a SMILES is read from it. dAbu(3S-yl) = C[C@@H]([C@@H](N[*:1])C(=O)[*:2])[*:3]; pGlu = O=C1CC[C@@H](C(=O)O)N1
# Legend:
# Format in all cases: cell-based
# GAL2R [1] = target: T1, GAL2R (Homo sapiens, UniProt O43603); test: PathHunter eXpress β-arrestin recruitment assay, GAL2R; design: expressed in transfected cells; conditions: Table 3; CHO-K1 cells co-expressing GAL2R and β-arrestin 2; 10 µM to 5 nM; (average) ratio, (n) in cell = number of assays; NA = ratio above 1000
# T1 sequence (O43603 1-387): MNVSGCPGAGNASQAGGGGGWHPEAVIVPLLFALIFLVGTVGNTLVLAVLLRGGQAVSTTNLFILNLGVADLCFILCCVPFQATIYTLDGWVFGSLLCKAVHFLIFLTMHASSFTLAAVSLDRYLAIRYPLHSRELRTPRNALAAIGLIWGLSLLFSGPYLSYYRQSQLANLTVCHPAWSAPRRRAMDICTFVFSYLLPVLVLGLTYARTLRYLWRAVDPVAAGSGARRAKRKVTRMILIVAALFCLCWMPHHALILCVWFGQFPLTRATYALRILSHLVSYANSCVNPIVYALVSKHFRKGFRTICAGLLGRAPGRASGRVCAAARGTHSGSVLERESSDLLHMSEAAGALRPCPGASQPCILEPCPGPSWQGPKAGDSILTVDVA
# Experimental: (§1) To evaluate the ability of lanthipeptides to recruit ß-arrestins via GAL1R or via GAL2R, we used the PathHunter® eXpress GAL1R, CHO-K1, β-arrestin GPCR Assay and the PathHunter® eXpress GAL2R, CHO-K1, β-arrestin, GPCR Assay from Eurofins-DiscoverX. The assays were performed according to the manufacturer’s instructions. Briefly, for one assay, CHO-K1 cells co-expressing GAL1R or GAL2R and β-arrestin (isoform 2) were diluted in AssayComplete™ Cell Plating Reagent, and 100 µl was seeded into each well of a 96-well plate. The plate was incubated at 37 °C, 5% CO2 in a humidified incubator. A serial 3 × dilution of the lanthipeptides in water was made (10 µM to 5 nM). After 48 h of incubation, 10 µl of the serial dilutions was applied to the cells in duplicate. The agonists were incubated for 90 min at 37 °C. Next, 55 µL of Working Detection Solution was added, and after 1 h of incubation at room temperature in the dark, the chemiluminescent signal was read with a Synergy HT Biotek reader.
# GAL1R [2] = target: T2, GAL1R (Homo sapiens, UniProt P47211); test: cAMP Hunter eXpress GAL1R CHO-K1 GPCR assay (inhibition of forskolin-induced cAMP); design: expressed in transfected cells; conditions: Table 3; CHO-K1 cells expressing GAL1R; 20 µM forskolin; 10 µM to 5 nM; (average) ratio, (n) in cell = number of assays; NA = ratio above 1000
# T2 sequence (P47211 1-349): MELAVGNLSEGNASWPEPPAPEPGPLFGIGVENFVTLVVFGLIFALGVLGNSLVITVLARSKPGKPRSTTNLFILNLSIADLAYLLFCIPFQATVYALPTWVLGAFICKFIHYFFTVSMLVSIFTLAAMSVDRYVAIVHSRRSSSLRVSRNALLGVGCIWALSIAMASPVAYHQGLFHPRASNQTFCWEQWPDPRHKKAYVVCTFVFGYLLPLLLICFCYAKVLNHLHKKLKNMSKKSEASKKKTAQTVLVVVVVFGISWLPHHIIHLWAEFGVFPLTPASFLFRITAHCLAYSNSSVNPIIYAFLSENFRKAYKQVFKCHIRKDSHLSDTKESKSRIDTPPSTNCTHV
# Experimental: To evaluate the ability of lanthipeptides to […] via GAL1R signaling, we used the cAMP Hunter™ eXpress GAL1R CHO-K1 GPCR Assay from Eurofins-DiscoverX. The assay was performed according to the manufacturer’s instructions. Briefly, for one assay, CHO-K1 cells expressing GAL1R were diluted in AssayComplete™ Cell Plating 2 Reagent, and 100 µl was seeded into each well of a 96-well plate. The plate was incubated at 37 °C, 5% CO2 in a humidified incubator. After 24 h of incubation, the media was aspirated, and 45 µl cell assay buffer/antibody mixture was added to all wells. […] Fifteen µl of the serial dilutions was applied in duplicates to the cells. The concentration of forskolin in the assay was 20 µM. The agonists were incubated for 30 min at 37 °C. Next, 15 µL Antibody Solution and 60 μL cAMP Working Detection Solution were added, and the plate was incubated for 1 h in the dark at room temperature. Finally, 60 μL cAMP Solution A was added and, after 3 h of incubation in the dark at room temperature, the chemiluminescent signal was read with a Synergy HT Biotek reader.
# GAL1R [3] = target: T2, GAL1R; test: PathHunter eXpress β-arrestin recruitment assay, GAL1R; design: expressed in transfected cells; conditions: Table 3; CHO-K1 cells co-expressing GAL1R and β-arrestin 2; 10 µM to 5 nM; (average) ratio, (n) in cell = number of assays; NA = ratio above 1000
# Experimental: as §1
# GAL2R [4] = target: T1, GAL2R; test: Fluo-4 Direct calcium assay (Ca efflux) in HEK293 cells overexpressing GAL2R; conditions: Table 3; HEK293 cells stably overexpressing GAL2R; Fluo-4, from 10 µM; (average) ratio, (n) in cell = number of assays; NA = ratio above 1000
# Experimental: Calcium efflux was measured by using a Fluo-4 Direct Calcium Assay purchased from Thermo Fisher Scientific. HEK293 cells with stable overexpression of GAL2R (HEKR2) (kindly provided by Harald Dargatz, Molecular, Cellular and Pharmacobiology Section, Institute of Pharmaceutical Biology, University of Bonn, 53,115 Bonn, Germany) were used for analysis of the lanthipeptides. HEKR2 cells were seeded in a 96-well plate and grown overnight in DMEM supplemented with 10% FBS, 1% penicillin–streptomycin, 100 µg/ml Normocin, and 500 µg/ml G418 at 37 °C, 5% CO2 in a humidified incubator.
# The next day, when the cells were nearly confluent, an equal amount of 2 × Fluo-4 Direct™ calcium reagent loading solution, containing 5 mM probenecid, was added to the wells, and the plate was incubated for 1 h at 37 °C. A serial 3 × dilution of the agonist compound in water was made, and 10 µl of the serial dilutions was applied to the cells in duplicate. The starting concentration of agonist in the assay was 10 µM. After 1–2 h of incubation at room temperature, the fluorescence was measured with excitation at 485/20 nm and emission at 528/20 nm with a Synergy HT Biotek reader.
Compound,"EC50 ratios to Gal-(1-15), GAL2R ß-Arrestin (GAL2R [1])","EC50 ratios to Gal-(1-15), GAL1R cAMP (GAL1R [2])","EC50 ratios to Gal-(1-15), GAL1R ß-Arrestin (GAL1R [3])","EC50 ratios to Gal-(1-15), GAL2R Ca-efflux (GAL2R [4])"
CC(C)C[C@H](NC(=O)[C@H](CC(C)C)NC(=O)[C@H](Cc1ccc(O)cc1)NC(=O)CNC(=O)[C@H](C)NC(=O)[C@H](C)NC(=O)[C@H](CC(N)=O)NC(=O)[C@H](CC(C)C)NC(=O)[C@H](CC(N)=O)NC(=O)[C@H](Cc1c[nH]c2ccccc12)NC(=O)[C@@H]1CCC(=O)N1)C(=O)NCC(=O)N[C@@H](C)C(=O)N[C@H]1C(=O)N[C@@H](C)C(=O)N[C@@H](C(C)C)C(=O)N[C@H](C(=O)N[C@@H](CC(N)=O)C(=O)N[C@@H](Cc2c[nH]cn2)C(=O)N[C@@H](CCCNC(=N)N)C(=O)O)CS[C@H]1C [Variant M54] ([pGlu]WNLNAAGYLLGA[dAbu(3S-yl)]AVCNHR-OH; thioether 14-17; C-terminus assumed),1.2 (3),140 (2),4.5 (2),3.3 (3)
CC(C)C[C@H](NC(=O)[C@H](CC(C)C)NC(=O)[C@H](Cc1ccc(O)cc1)NC(=O)CNC(=O)[C@H](C)NC(=O)[C@H](C)NC(=O)[C@H](CC(N)=O)NC(=O)[C@H](CC(C)C)NC(=O)[C@H](CC(N)=O)NC(=O)[C@H](Cc1c[nH]c2ccccc12)NC(=O)[C@@H]1CCC(=O)N1)C(=O)NCC(=O)N1CCC[C@H]1C(=O)N[C@@H](Cc1c[nH]cn1)C(=O)N[C@@H](C)C(=O)N[C@H]1C(=O)NCC(=O)N[C@@H](CC(N)=O)C(=O)N[C@H](C(=O)N[C@@H](CCCNC(=N)N)C(=O)O)CS[C@H]1C [Variant M74b] ([pGlu]WNLNAAGYLLGPHA[dAbu(3S-yl)]GNCR-OH; thioether 16-19; C-terminus assumed),4.2 (1),13.3 (1),129 (1),2.6 (3)
"GWNLNAAGYLLATHACG (also: sidechain bridge or staple (positions not given here)) [Variant M89, methyllanthionine-containing galanin variant produced in L. lactis]",3 (1),NA (1) (NA is not active; ratios above 1000 were considered to be not active),148 (1),2.7 (1)
"GWNLNAAGYLLATHACGNHR (also: sidechain bridge or staple (positions not given here)) [Variant M50, methyllanthionine-containing galanin variant produced in L. lactis]",0.5 (1),12.5 (1),3.8 (1),3.5 (2)
"GWNLNAAGYLLGATAVC (also: sidechain bridge or staple (positions not given here)) [Variant M90, methyllanthionine-containing galanin variant produced in L. lactis]",3.2 (1),4.9 (1),2.7 (1),4.6 (1)
"GWNLNAAGYLLGATAVCNHR (also: sidechain bridge or staple (positions not given here)) [Variant M51, methyllanthionine-containing galanin variant produced in L. lactis]",0.6 (2),3.6 (1),1.5 (2),2.9 (2)
"GWNLNAAGYLLGATAVGCHR (also: sidechain bridge or staple (positions not given here)) [Variant M76, methyllanthionine-containing galanin variant produced in L. lactis]",1.0 (1),0.6 (1),1.0 (1),0.9 (1)
"GWNLNAAGYLLGPHATGNCR (also: sidechain bridge or staple (positions not given here)) [Variant M74, methyllanthionine-containing galanin variant produced in L. lactis]",2.6 (1),4.6 (1),2.3 (1),4.7 (1)
"GWNLNAAGYLLGPHTVGCHR (also: sidechain bridge or staple (positions not given here)) [Variant M52, methyllanthionine-containing galanin variant produced in L. lactis]",0.6 (1),7.5 (2),8.3 (1),1.9 (1)
"GWNLNAAGYLLGTHACG (also: sidechain bridge or staple (positions not given here)) [Variant M84, methyllanthionine-containing galanin variant produced in L. lactis]",NA (1) (NA is not active; ratios above 1000 were considered to be not active),–,35 (1),6.3 (1)
"GWNLNAATYLCGPHAVGNHR (also: sidechain bridge or staple (positions not given here)) [Variant M60, methyllanthionine-containing galanin variant produced in L. lactis]",NA (1) (NA is not active; ratios above 1000 were considered to be not active),NA (2) (NA is not active; ratios above 1000 were considered to be not active),–,8.7 (1)
